Data set [1] can be described thus: Absorbance and fluorescence emission spectra (SpectraMax M2). The data set is classed as physicochemical. The method in brief: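 Absorbance and emission maxima measured on a SpectraMax M2 spectrophotometer, which also gave quantum yield data; analysis in GraphPrism.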
The nature of data set [2]: Quantum yield measurements versus Acridine Yellow in EtOH. Format: physicochemical. The settings on record: excitation 460 nm. Summed up: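 Fluorescence quantum yield is relative to Acridine Yellow in EtOH (Φ 0.47), with excitation at 460 nm. Integrated emission at 510–700 nm was corrected for absorbance at the excitation wavelength and for solvent refractive index.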

In the case of `CCCCCCCCc1cn(-c2ccc3n2[B-](F)(F)[N+]2=C(N4CCCCC4)C=CC2=C3c2ccc(NC(=O)CCl)cc2)nn1` [BDCCA-44], in data set [1] (BDCCA library, Table 4), the “λmax Absorp.” value amounted to 466 nm and the “λmax Emission” value came to 582 nm. Further, in data set [2] (BDCCA library, Table 4), the “φ (quantum yield)” value turned out to be 0.7%.
Taken in the same sequence, the figures for `Cc1cccc(-c2cn(-c3ccc4n3[B-](F)(F)[N+]3=C(N5CCCCC5)C=CC3=C4c3ccc(NC(=O)CCl)cc3)nn2)c1` [BDCCA-45] were 463 nm, 555 nm and 2.7%.
Regarding `CCc1ccc(-c2cn(-c3ccc4n3[B-](F)(F)[N+]3=C(N5CCCCC5)C=CC3=C4c3ccc(NC(=O)CCl)cc3)nn2)cc1` [BDCCA-46], in data set [1] (BDCCA library, Table 4), the “λmax Absorp.” value is given as 464 nm and the “λmax Emission” value was determined as 568 nm. Also, the “φ (quantum yield)” value in data set [2] (BDCCA library, Table 4) is on record as 1.2%.
For `CCCCCCc1cn(-c2ccc3n2[B-](F)(F)[N+]2=C(N4CCCCC4)C=CC2=C3c2ccc(NC(=O)CCl)cc2)nn1` [BDCCA-47], in that order: 466 nm, 560 nm and 1.8%.
Taken in the same sequence, the figures for `CCCc1cn(-c2ccc3n2[B-](F)(F)[N+]2=C(N4CCCCC4)C=CC2=C3c2ccc(NC(=O)CCl)cc2)nn1` [BDCCA-48] were 466 nm, 569 nm and 1.4%.
For `CCCCCCCCCCc1cn(-c2ccc3n2[B-](F)(F)[N+]2=C(N4CCCCC4)C=CC2=C3c2ccc(NC(=O)CCl)cc2)nn1` [BDCCA-49], in that order: 466 nm, 575 nm and 1.2%.
Regarding `CCCCCCCc1cn(-c2ccc3n2[B-](F)(F)[N+]2=C(N4CCCCC4)C=CC2=C3c2ccc(NC(=O)CCl)cc2)nn1` [BDCCA-50], in data set [1] (BDCCA library, Table 4), the “λmax Absorp.” value stood at 466 nm and the “λmax Emission” value was found to be 568 nm. In addition, in data set [2] (BDCCA library, Table 4), the “φ (quantum yield)” value worked out at 1.0%.
Taken in the same sequence, the figures for `O=C(CCl)Nc1ccc(C2=C3C=CC(N4CCCCC4)=[N+]3[B-](F)(F)n3c2ccc3-n2cc(C3(O)CCCC3)nn2)cc1` [BDCCA-67] were 468 nm, 590 nm and 0.7%.
On to `O=C(CCl)Nc1ccc(C2=C3C=CC(N4CCCCC4)=[N+]3[B-](F)(F)n3c2ccc3-n2cc(CO)nn2)cc1` [BDCCA-70], for which, in data set [1] (BDCCA library, Table 4), the “λmax Absorp.” value is recorded as 465 nm and the “λmax Emission” value turned out to be 584 nm. Further, the “φ (quantum yield)” value in data set [2] (BDCCA library, Table 4) is 0.6%.
With `CCCC(C)c1cn(-c2ccc3n2[B-](F)(F)[N+]2=C(N4CC(C)OC(C)C4)C=CC2=C3c2ccc(N)cc2)nn1` (centres unmarked) [MK20-3], in data set [1] (MK library, Table 5), the “λmax Absorp.” value is given as 476 nm and the “λmax Emission” value came to 573 nm. The “φ (quantum yield)” value in data set [2] (MK library, Table 5) came out at 0.10%.
For `CC1CN(C2=[N+]3C(=C(c4ccc(N)cc4)c4ccc(-n5cc(C6CC6)nn5)n4[B-]3(F)F)C=C2)CC(C)O1` (centres unmarked) [MK20-4], in that order: 476 nm, 564 nm and 0.50%.
As to `CC1CN(C2=[N+]3C(=C(c4ccc(N)cc4)c4ccc(-n5cc(C6CCCC6)nn5)n4[B-]3(F)F)C=C2)CC(C)O1` (centres unmarked) [MK20-5], in data set [1] (MK library, Table 5), the “λmax Absorp.” value came out at 476 nm and the “λmax Emission” value is recorded as 580 nm. The “φ (quantum yield)” value in data set [2] (MK library, Table 5) was 0.57%.
Regarding `CC1CN(C2=[N+]3C(=C(c4ccc(N)cc4)c4ccc(-n5cc(CC6CCCCC6)nn5)n4[B-]3(F)F)C=C2)CC(C)O1` (centres unmarked) [MK20-8], in data set [1] (MK library, Table 5), the “λmax Absorp.” value was found to be 476 nm and the “λmax Emission” value is reported as 563 nm. Also, in data set [2] (MK library, Table 5), the “φ (quantum yield)” value amounted to 0.32%.
As for `CC1CN(C2=[N+]3C(=C(c4ccc(N)cc4)c4ccc(-n5cc(CN(C)Cc6ccccc6)nn5)n4[B-]3(F)F)C=C2)CC(C)O1` (centres unmarked) [MK20-18], in data set [1] (MK library, Table 5), the “λmax Absorp.” value is given as 477 nm and the “λmax Emission” value was determined as 582 nm. The “φ (quantum yield)” value in data set [2] (MK library, Table 5) is on record as 0.23%.
Turning to `CC1CN(C2=[N+]3C(=C(c4ccc(N)cc4)c4ccc(-n5cc(CCc6ccccc6)nn5)n4[B-]3(F)F)C=C2)CC(C)O1` (centres unmarked) [MK20-19], in data set [1] (MK library, Table 5), the “λmax Absorp.” value was 477 nm and the “λmax Emission” value was determined as 578 nm. Also, the “φ (quantum yield)” value in data set [2] (MK library, Table 5) is on record as 0.34%.
As for `CC(C)Cc1cn(-c2ccc3n2[B-](F)(F)[N+]2=C(N4CC(C)OC(C)C4)C=CC2=C3c2ccc(N)cc2)nn1` (centres unmarked) [MK20-43], in data set [1] (MK library, Table 5), the “λmax Absorp.” value turned out to be 478 nm and the “λmax Emission” value was found to be 584 nm. For the same compound, in data set [2] (MK library, Table 5), the “φ (quantum yield)” value is listed as 0.23%.
Taken in the same sequence, the figures for `CCCc1cn(-c2ccc3n2[B-](F)(F)[N+]2=C(N4CC(C)OC(C)C4)C=CC2=C3c2ccc(N)cc2)nn1` (centres unmarked) [MK20-48] were 476 nm, 580 nm and 0.25%.
Turning to `CCCCCC(O)c1cn(-c2ccc3n2[B-](F)(F)[N+]2=C(N4CC(C)OC(C)C4)C=CC2=C3c2ccc(N)cc2)nn1` (centres unmarked) [MK20-69], in data set [1] (MK library, Table 5), the “λmax Absorp.” value stood at 480 nm and the “λmax Emission” value is listed as 586 nm. The “φ (quantum yield)” value in data set [2] (MK library, Table 5) was found to be 0.16%.
For `CC1CN(C2=[N+]3C(=C(c4ccc(N)cc4)c4ccc(-n5cc(CO)nn5)n4[B-]3(F)F)C=C2)CC(C)O1` (centres unmarked) [MK20-70], in that order: 479 nm, 584 nm and 0.18%.
In the case of `CCCC(C)c1cn(-c2ccc3n2[B-](F)(F)[N+]2=C(N4CCc5ccccc5C4)C=CC2=C3c2ccc(N)cc2)nn1` (centres unmarked) [MK66-3], in data set [1] (MK library, Table 5), the “λmax Absorp.” value is 479 nm and the “λmax Emission” value was determined as 579 nm. Besides, in data set [2] (MK library, Table 5), the “φ (quantum yield)” value turned out to be 0.16%.
Regarding `Nc1ccc(C2=C3C=CC(N4CCc5ccccc5C4)=[N+]3[B-](F)(F)n3c2ccc3-n2cc(C3CC3)nn2)cc1` [MK66-4], in data set [1] (MK library, Table 5), the “λmax Absorp.” value is reported as 479 nm and the “λmax Emission” value was 587 nm. Besides, the “φ (quantum yield)” value in data set [2] (MK library, Table 5) came to 0.12%.
On to `Nc1ccc(C2=C3C=CC(N4CCc5ccccc5C4)=[N+]3[B-](F)(F)n3c2ccc3-n2cc(C3CCCC3)nn2)cc1` [MK66-5], for which, in data set [1] (MK library, Table 5), the “λmax Absorp.” value came to 481 nm and the “λmax Emission” value worked out at 582 nm. In data set [2] (MK library, Table 5), the “φ (quantum yield)” value was determined as 0.19%.
For `Nc1ccc(C2=C3C=CC(N4CCc5ccccc5C4)=[N+]3[B-](F)(F)n3c2ccc3-n2cc(CC3CCCCC3)nn2)cc1` [MK66-8], in that order: 480 nm, 590 nm and 0.12%.
`CN(Cc1ccccc1)Cc1cn(-c2ccc3n2[B-](F)(F)[N+]2=C(N4CCc5ccccc5C4)C=CC2=C3c2ccc(N)cc2)nn1` [MK66-18]: in data set [1] (MK library, Table 5), the “λmax Absorp.” value is given as 478 nm and the “λmax Emission” value is 587 nm. The “φ (quantum yield)” value in data set [2] (MK library, Table 5) is 0.14%.
For `Nc1ccc(C2=C3C=CC(N4CCc5ccccc5C4)=[N+]3[B-](F)(F)n3c2ccc3-n2cc(CCc3ccccc3)nn2)cc1` [MK66-19], in that order: 480 nm, 585 nm and 0.13%.
`CC(C)Cc1cn(-c2ccc3n2[B-](F)(F)[N+]2=C(N4CCc5ccccc5C4)C=CC2=C3c2ccc(N)cc2)nn1` [MK66-43]: in data set [1] (MK library, Table 5), the “λmax Absorp.” value amounted to 480 nm and the “λmax Emission” value is given as 582 nm. In addition, in data set [2] (MK library, Table 5), the “φ (quantum yield)” value was found to be 0.14%.
With `CCCc1cn(-c2ccc3n2[B-](F)(F)[N+]2=C(N4CCc5ccccc5C4)C=CC2=C3c2ccc(N)cc2)nn1` [MK66-48], in data set [1] (MK library, Table 5), the “λmax Absorp.” value is listed as 480 nm and the “λmax Emission” value turned out to be 581 nm. For the same compound, in data set [2] (MK library, Table 5), the “φ (quantum yield)” value is given as 0.12%.
Taken in the same sequence, the figures for `CCCCCC(O)c1cn(-c2ccc3n2[B-](F)(F)[N+]2=C(N4CCc5ccccc5C4)C=CC2=C3c2ccc(N)cc2)nn1` (centres unmarked) [MK66-69] were 480 nm, 583 nm and 0.14%.
Consider `Nc1ccc(C2=C3C=CC(N4CCc5ccccc5C4)=[N+]3[B-](F)(F)n3c2ccc3-n2cc(CO)nn2)cc1` [MK66-70], for which, in data set [1] (MK library, Table 5), the “λmax Absorp.” value turned out to be 479 nm and the “λmax Emission” value is 596 nm. In addition, the “φ (quantum yield)” value in data set [2] (MK library, Table 5) is listed as 0.14%.
As for `CCCC(C)c1cn(-c2ccc3n2[B-](F)(F)[N+]2=C(NCc4ccccc4C)C=CC2=C3c2ccc(N)cc2)nn1` (centres unmarked) [MK101-3], in data set [1] (MK library, Table 5), the “λmax Absorp.” value is 475 nm and the “λmax Emission” value turned out to be 562 nm. The “φ (quantum yield)” value in data set [2] (MK library, Table 5) is recorded as 1.08%.
For `Cc1ccccc1CNC1=[N+]2C(=C(c3ccc(N)cc3)c3ccc(-n4cc(C5CC5)nn4)n3[B-]2(F)F)C=C1` [MK101-4], in that order: 474 nm, 566 nm and 0.70%.
For the compound `Cc1ccccc1CNC1=[N+]2C(=C(c3ccc(N)cc3)c3ccc(-n4cc(C5CCCC5)nn4)n3[B-]2(F)F)C=C1` [MK101-5], in data set [1] (MK library, Table 5), the “λmax Absorp.” value is given as 475 nm and the “λmax Emission” value was 565 nm. The “φ (quantum yield)” value in data set [2] (MK library, Table 5) was found to be 0.58%.
As to `Cc1ccccc1CNC1=[N+]2C(=C(c3ccc(N)cc3)c3ccc(-n4cc(CC5CCCCC5)nn4)n3[B-]2(F)F)C=C1` [MK101-8], in data set [1] (FIG. 2 normalized spectra), the “absorbance λmax” value worked out at 474 nm and the “emission λmax” value is given as 563 nm. In data set [1] (MK library, Table 5), the “λmax Absorp.” value came to 475 nm and the “λmax Emission” value came to 564 nm. Moreover, in data set [2] (MK library, Table 5), the “φ (quantum yield)” value came to 0.64%.
With `Cc1ccccc1CNC1=[N+]2C(=C(c3ccc(N)cc3)c3ccc(-n4cc(CN(C)Cc5ccccc5)nn4)n3[B-]2(F)F)C=C1` [MK101-18], in data set [1] (MK library, Table 5), the “λmax Absorp.” value was 474 nm and the “λmax Emission” value is reported as 563 nm. Further, in data set [2] (MK library, Table 5), the “φ (quantum yield)” value worked out at 0.179%.
For `Cc1ccccc1CNC1=[N+]2C(=C(c3ccc(N)cc3)c3ccc(-n4cc(CCc5ccccc5)nn4)n3[B-]2(F)F)C=C1` [MK101-19], in that order: 472 nm, 560 nm and 2.03%.
As to `Cc1ccccc1CNC1=[N+]2C(=C(c3ccc(N)cc3)c3ccc(-n4cc(CC(C)C)nn4)n3[B-]2(F)F)C=C1` [MK101-43], in data set [1] (MK library, Table 5), the “λmax Absorp.” value was 474 nm and the “λmax Emission” value was determined as 562 nm. Besides, in data set [2] (MK library, Table 5), the “φ (quantum yield)” value stood at 2.36%.

The values are drawn from patent US9513294B2, “Megastokes amino-triazolyl-BODIPY compounds and applications to live neuron staining and human serum albumin FA1 drug site probing” (National University of Singapore, priority 2012, dated 2016).
